Assays:
[1] = tested on: panelists; experiment: Cooling intensity: panelists taste aqueous solutions versus menthol at 2 ppm; format: in vivo; settings: aqueous solution with cooling intensity similar or slightly higher than a solution of menthol at 2 ppm
[2] = tested on: panelist; experiment: Application in chewing gum, gum stick chewed by a panelist; format: in vivo; settings: chewing gum with 0.10 g compound in about 100 g gum, with peppermint oil; chewed for 15 minutes
Method: All the ingredients are mixed in the pre-warmed gum base. The mixture is spread in thick films, cooled down and cut in sticks. A gum stick is chewed by a panelist for 15 minutes. […] No off-note was observed.

[3] = tested on: panelist; experiment: Application in beverage (clear lemon/lime soda), tasted by a panelist; format: in vivo; settings: 1.2 mL of a 0.5% ethanolic solution in a 355 mL can of clear lemon/lime soda
Method: 1.2 mL of a 0.5% ethanolic solution of 1-isopropyl-4-methyl-bicyclo[2.2.2]oct-5-ene-2,3-dicarbinol is added in a 355 mL (12 fl oz.) can of clear lemon/lime soda.

[4] = tested on: panelist; settings: general statement, not tested here; cited from earlier work

| Molecule | Concentration [1] [ppm] | cooling sensation [2] | cooling sensation [3] | throat burning [3] | throat burning (stated as known characteristic) [4] |
| --- | --- | --- | --- | --- | --- |
| 1-Isopropyl-4-methyl-bicyclo[2.2.2]oct-5-ene-2-carboxylic acid and 1-isopropyl-4-methyl-bicyclo[2.2.2]oct-5-ene-3-carboxylic acid [Example 2] | 2 | – | – | – | – |
| CC(C)C12C=CC(C)(CC1)C(CO)C2CO (stereo not drawn) [Example 1, 1-Isopropyl-4-methyl-bicyclo[2.2.2]oct-5-ene-2,3-dicarbinol] | 2 | immediate cooling sensation is felt in all areas of the mouth | immediate cooling sensation in the mouth | none of the throat burning | – |
| CCNC(=O)C1CC2(C)C=CC1(C(C)C)CC2 (stereo not drawn) [Example 4, N-ethyl 1-Isopropyl-4-methyl-bicyclo[2.2.2]oct-5-ene-2-carboxamide] | 3 | – | – | – | – |
| CC1=CC2C(O)CC1CC2C(C)C (stereo not drawn) [Example 6, 7-isopropyl-5-methyl-bicyclo[2.2.2]oct-5-en-2-ol] | 5 | – | – | – | – |
| CCNC(=O)C1CC(C)CCC1C(C)C (stereo not drawn) [WS-3, N-ethyl p-menthanecarboxamide, reference compound] | 1.5 | – | – | – | throat burning that is characteristic |

— patent US20090098066A1, “Substituted bicyclo [2.2.2] oct/5-ene compounds and their use as cooling agents” (priority 2005, published 2009)
